Values quoted from earlier work in patent US20250375478A1, “THERAPEUTIC COMPOSITION, ASSEMBLY KIT AND METHOD FOR THE TREATMENT OF DRY EYE DISEASE AND PROMOTION OF OCULAR HEALTH” (PReye, LLC, priority 2025, published 2025).

Conditions: ferulic acid combined in solution with Vitamin C

stabilization of Vitamin C: up to 90%
SMILES: COc1cc(/C=C/C(=O)O)ccc1O [Ferulic acid]
